# Source: article PMC1513218 (BMC Pharmacology, 2006)
# Where a name gives a salt, the structure may show the parent alone.
# Legend:
# [1] = target: T1, anthrax lethal factor (LF) protease (Bacillus anthracis, UniProt P15917); test: biochemical; assay type: biochemical
# furin = furin (Homo sapiens, UniProt P09958); test: Furin inhibition, fluorogenic substrate cleavage assay; assay type: biochemical
# [2] = target: botulinum neurotoxin/A (BoNT/A) (Clostridium botulinum, UniProt P0DPI1); test: biochemical; assay type: biochemical
# Sequence of botulinum neurotoxin/A (BoNT/A) (P0DPI1 whole entry, looked up): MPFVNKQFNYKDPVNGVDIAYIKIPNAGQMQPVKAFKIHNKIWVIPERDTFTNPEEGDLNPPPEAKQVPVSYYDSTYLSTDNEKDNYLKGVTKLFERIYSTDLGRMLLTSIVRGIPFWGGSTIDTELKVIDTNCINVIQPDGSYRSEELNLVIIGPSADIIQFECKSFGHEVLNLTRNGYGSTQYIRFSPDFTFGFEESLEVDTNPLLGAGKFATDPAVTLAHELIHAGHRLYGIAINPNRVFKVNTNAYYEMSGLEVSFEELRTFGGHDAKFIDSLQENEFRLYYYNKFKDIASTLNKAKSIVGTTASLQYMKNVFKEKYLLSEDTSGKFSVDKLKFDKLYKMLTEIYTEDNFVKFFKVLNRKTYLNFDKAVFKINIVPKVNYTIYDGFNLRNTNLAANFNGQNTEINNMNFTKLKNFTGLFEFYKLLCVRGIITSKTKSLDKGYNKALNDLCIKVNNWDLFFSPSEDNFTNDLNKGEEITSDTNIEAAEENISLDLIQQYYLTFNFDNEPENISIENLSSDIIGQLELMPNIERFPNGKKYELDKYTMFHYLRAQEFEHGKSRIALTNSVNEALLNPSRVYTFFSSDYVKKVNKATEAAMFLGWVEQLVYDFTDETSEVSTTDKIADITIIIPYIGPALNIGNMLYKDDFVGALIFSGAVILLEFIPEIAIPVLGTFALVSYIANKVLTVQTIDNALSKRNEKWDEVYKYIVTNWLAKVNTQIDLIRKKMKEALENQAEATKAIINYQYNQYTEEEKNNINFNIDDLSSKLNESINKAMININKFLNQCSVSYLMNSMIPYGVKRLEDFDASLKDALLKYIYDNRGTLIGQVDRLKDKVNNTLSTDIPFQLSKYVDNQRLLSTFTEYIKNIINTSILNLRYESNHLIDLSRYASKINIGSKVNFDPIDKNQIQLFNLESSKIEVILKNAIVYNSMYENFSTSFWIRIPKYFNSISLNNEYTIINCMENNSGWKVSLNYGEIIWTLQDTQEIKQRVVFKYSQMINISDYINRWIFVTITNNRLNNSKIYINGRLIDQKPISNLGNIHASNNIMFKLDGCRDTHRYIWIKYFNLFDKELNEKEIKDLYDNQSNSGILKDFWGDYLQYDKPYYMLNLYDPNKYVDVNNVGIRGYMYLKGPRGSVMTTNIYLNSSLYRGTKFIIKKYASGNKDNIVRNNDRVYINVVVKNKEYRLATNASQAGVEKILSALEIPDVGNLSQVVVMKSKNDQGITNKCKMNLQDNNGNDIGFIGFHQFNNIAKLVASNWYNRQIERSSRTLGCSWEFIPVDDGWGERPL
# MMP-9 = MMP-9 (Homo sapiens, UniProt P14780); test: biochemical
# Sequence of MMP-9 (P14780 94-707, species assumed): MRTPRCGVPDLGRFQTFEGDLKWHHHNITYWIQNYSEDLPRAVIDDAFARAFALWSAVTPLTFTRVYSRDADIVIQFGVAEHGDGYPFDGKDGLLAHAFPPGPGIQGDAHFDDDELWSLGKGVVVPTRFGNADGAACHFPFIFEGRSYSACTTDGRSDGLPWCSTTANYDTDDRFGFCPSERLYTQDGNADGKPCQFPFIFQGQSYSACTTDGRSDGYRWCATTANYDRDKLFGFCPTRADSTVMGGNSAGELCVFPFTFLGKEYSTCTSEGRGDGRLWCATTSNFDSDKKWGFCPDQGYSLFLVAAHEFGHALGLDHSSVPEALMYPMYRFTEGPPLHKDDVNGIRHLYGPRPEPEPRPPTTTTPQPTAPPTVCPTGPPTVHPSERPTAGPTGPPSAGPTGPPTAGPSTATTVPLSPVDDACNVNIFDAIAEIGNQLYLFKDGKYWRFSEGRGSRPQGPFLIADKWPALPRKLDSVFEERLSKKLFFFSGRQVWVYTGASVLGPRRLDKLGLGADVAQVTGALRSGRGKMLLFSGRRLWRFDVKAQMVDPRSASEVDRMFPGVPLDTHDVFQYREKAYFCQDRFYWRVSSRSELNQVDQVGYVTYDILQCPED
# [3] = target: T1, anthrax lethal factor (LF) protease; assay type: biochemical
# trypsin = trypsin (Homo sapiens, UniProt P07477); test: biochemical
# cathepsin B = cathepsin B (Homo sapiens, UniProt P07858); test: biochemical
# cathepsin D = cathepsin D (Homo sapiens, UniProt P07339); test: biochemical
# Sequence of cathepsin D (P07339 65-412, species assumed): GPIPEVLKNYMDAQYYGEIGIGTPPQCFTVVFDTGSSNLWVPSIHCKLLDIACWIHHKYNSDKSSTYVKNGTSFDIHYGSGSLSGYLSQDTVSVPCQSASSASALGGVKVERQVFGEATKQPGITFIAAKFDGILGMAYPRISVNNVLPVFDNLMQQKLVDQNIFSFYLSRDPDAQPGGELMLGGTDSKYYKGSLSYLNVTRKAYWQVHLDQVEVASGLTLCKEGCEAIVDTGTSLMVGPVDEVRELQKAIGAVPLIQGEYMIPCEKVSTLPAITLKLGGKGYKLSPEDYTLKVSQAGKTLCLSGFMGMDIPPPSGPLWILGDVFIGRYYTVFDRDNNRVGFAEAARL
# Sequence of furin (P09958 108-794): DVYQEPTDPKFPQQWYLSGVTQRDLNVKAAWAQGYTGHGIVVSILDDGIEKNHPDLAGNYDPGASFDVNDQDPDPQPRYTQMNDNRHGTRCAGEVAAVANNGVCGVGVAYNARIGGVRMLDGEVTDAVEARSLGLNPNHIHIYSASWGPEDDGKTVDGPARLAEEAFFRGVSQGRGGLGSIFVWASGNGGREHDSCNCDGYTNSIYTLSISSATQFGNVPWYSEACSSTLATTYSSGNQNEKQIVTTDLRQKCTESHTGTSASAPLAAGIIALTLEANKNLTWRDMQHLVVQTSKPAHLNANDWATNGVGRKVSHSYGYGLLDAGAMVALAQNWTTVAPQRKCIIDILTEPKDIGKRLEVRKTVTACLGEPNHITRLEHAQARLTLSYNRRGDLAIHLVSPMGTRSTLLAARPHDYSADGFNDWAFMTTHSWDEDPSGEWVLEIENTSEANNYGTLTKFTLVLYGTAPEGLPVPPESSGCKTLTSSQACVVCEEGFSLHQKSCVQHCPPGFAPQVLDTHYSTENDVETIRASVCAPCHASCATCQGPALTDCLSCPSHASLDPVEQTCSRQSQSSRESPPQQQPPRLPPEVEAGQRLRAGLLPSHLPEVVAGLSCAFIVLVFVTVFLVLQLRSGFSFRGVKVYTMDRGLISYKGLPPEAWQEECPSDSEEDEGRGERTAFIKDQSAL
# T1 sequence (P15917 34-809 limits assumed): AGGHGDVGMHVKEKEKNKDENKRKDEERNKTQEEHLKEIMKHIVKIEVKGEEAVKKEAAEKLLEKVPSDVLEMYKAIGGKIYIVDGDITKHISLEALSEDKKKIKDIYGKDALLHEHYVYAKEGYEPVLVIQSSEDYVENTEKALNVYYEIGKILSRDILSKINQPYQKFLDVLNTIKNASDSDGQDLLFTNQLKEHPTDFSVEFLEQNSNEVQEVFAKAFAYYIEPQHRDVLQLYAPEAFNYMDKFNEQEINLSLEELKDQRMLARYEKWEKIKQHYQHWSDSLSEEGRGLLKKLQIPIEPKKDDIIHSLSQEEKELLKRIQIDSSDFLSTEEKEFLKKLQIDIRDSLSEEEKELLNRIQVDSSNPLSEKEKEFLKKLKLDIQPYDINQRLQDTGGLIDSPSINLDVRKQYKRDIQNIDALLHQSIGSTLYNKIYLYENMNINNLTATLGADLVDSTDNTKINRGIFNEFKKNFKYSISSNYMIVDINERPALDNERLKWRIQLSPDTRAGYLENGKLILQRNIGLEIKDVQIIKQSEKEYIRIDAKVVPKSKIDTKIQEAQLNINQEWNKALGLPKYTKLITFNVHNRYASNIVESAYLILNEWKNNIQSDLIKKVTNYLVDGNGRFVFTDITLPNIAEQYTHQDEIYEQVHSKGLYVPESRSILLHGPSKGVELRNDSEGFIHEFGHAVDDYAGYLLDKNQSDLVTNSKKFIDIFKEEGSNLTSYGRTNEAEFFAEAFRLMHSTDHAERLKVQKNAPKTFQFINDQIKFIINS
SMILES,Ki [1],IC50 [2],Ki (MMP-9),further results
CC(=O)N[C@@H](CCCNC(=N)N)C(=O)N[C@@H](CCCNC(=N)N)C(=O)N[C@@H](CCCNC(=N)N)C(=O)N[C@@H](CCCNC(=N)N)C(=O)N[C@@H](CCCNC(=N)N)C(=O)N[C@@H](CCCNC(=N)N)C(N)=O [Ac-RRRRRR-NH2],0.12 µM,,,
CC(=O)N[C@@H](CCCNC(=N)N)C(=O)N[C@@H](CCCNC(=N)N)C(=O)N[C@@H](CCCNC(=N)N)C(=O)N[C@@H](CCCNC(=N)N)C(=O)N[C@@H](CCCNC(=N)N)C(=O)N[C@@H](CCCNC(=N)N)C(=O)O [Ac-RRRRRR-OH],0.29 ± 0.04 µM,,,Ki (furin): 0.05 µM
NCC[C@H](O)C(=O)N[C@@H]1C[C@H](N)[C@@H](O[C@H]2O[C@H](CN)[C@@H](O)[C@H](O)[C@H]2O)[C@H](O)[C@H]1O[C@H]1O[C@H](CO)[C@@H](O)[C@H](N)[C@H]1O [Amikacin],23.3 µM,> 300 µM,> 300 µM,
CN[C@@H]1[C@@H](O[C@H]2O[C@H](CO)[C@@H](N)[C@H](O)[C@H]2O)OC2C[C@@H](N)[C@@H](O[C@H]3[C@H](O)[C@@H](O)[C@H](N)C[C@@H]3N)OC2[C@@H]1O (stereo partly drawn) [Apramycin],111 µM,> 300 µM,> 300 µM,
CNC(=O)[C@H](Cc1c[nH]c2ccccc12)NC(=O)[C@@H](CC(=O)NO)CC(C)C [GM 6001],7.2 ± 1.76 µM,> 300 µM,,
N=C(N)NCCC[C@@H](N)C(=O)N[C@H](CCCNC(=N)N)C(=O)N[C@H](CCCNC(=N)N)C(=O)N[C@H](CCCNC(=N)N)C(=O)N[C@H](CCCNC(=N)N)C(=O)N[C@H](CCCNC(=N)N)C(N)=O [H-(D-Arg)-(D-Arg)-(D-Arg)-(D-Arg)-(D-Arg)-(D-Arg)-NH2],0.04 ± 0.02 µM,,,Ki (furin): 0.06 µM
NC(N)=NCCC[C@H](NC(=O)[C@H](CCCN=C(N)N)NC(=O)[C@H](CCCN=C(N)N)NC(=O)[C@H](CCCN=C(N)N)NC(=O)[C@H](CCCN=C(N)N)NC(=O)[C@@H](N)CCCN=C(N)N)C(=O)O [H-RRRRRR-OH],0.24 µM,,,Ki (furin): 0.06 µM
"NC[C@H]1O[C@H](O[C@H]2[C@H](O)[C@@H](O)[C@H](N)C[C@@H]2N)[C@H](N)[C@@H](O)[C@@H]1O [Neamine (free base), Neamine]",31.1 ± 5.6 µM,175 µM,> 300 µM,effect of DNA or RNA on concentration-dependent LF inhibitory activity [3]: unaffected by DNA or RNA
N=C(N)NC[C@@H]1O[C@H](O[C@H]2[C@@H](O)[C@H](O[C@@H]3[C@@H](O)[C@H](NC(=N)N)C[C@H](NC(=N)N)[C@H]3O[C@H]3O[C@H](CNC(=N)N)[C@@H](O)[C@H](O)[C@H]3NC(=N)N)O[C@@H]2CO)[C@H](NC(=N)N)[C@@H](O)[C@@H]1O [Neomycin B hexaguanyl hexatrifluoroacetate salt],0.03 µM,14 µM,> 170 µM,Ki (furin): 1.5 µM
NC[C@@H]1O[C@H](O[C@H]2[C@@H](O)[C@H](O[C@@H]3[C@@H](O)[C@H](N)C[C@H](N)[C@H]3O[C@H]3O[C@H](CN)[C@@H](O)[C@H](O)[C@H]3N)O[C@@H]2CO)[C@H](N)[C@@H](O)[C@@H]1O [Neomycin B tris-sulfate],0.71 ± 0.04 µM,92.5 µM,> 300 µM,right shift in potency as LF inhibitor caused by DNA [3]: ~ 10 fold
"NCCCCN [Putrescine (1,4-diaminobutane), 1,4-diaminobutane]",> 300 µM,> 300 µM,> 300 µM,
CN[C@@H]1[C@@H](O)[C@@H](O[C@@H]2[C@@H](O)[C@H](O[C@H]3OC(CN)=CC[C@H]3N)[C@@H](N)C[C@H]2N)OC[C@]1(C)O [Sisomicin Sulfate],1.8 µM,> 300 µM,> 300 µM,
NCCCCNCCCN [Spermidine],> 100 µM,76 µM,,LF inhibition (in words) [1]: weaker than spermine but were still concentration-dependent inhibitors
"NCCCNCCCCNCCCN [Spermine, diphosphate salt]",0.9 ± 0.09 µM,57 µM,> 300 µM,Ki [2]: 46 ± 6 µM; fold weaker as botulinum protease inhibitor than as anthrax LF inhibitor [2]: > 40 fold; effect of DNA or RNA on concentration-dependent LF inhibitory activity [3]: unaffected by DNA or RNA; IC50 (trypsin): > 500 µM; IC50 (cathepsin B): > 500 µM; IC50 (cathepsin D): > 500 µM
"N=C(N)NC[C@H]1O[C@H](O[C@H]2[C@H](O)[C@@H](O)[C@H](NC(=N)N)C[C@@H]2NC(=N)N)[C@H](NC(=N)N)[C@@H](O)[C@@H]1O [Tetraguanyl neamine, free base, Tetraguanyl neamine]",0.3 µM,,,
CNC(C)C1CCC(N)C(OC2C(N)CC(N)C(OC3OCC(C)(O)C(NC)C3O)C2O)O1 (stereo not drawn) [gentamicin],,,,LF inhibition (in words) [1]: inhibited LF enzyme activity
NCCC[C@H](N)C(=O)O [ornithine],,,,LF inhibition (in words) [1]: weaker than spermine but were still concentration-dependent inhibitors
